Laboratory results published in ChEMBL document CHEMBL1201862, “PubChem BioAssay data set” (2004).
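Tested at 5 concentrations; 48 h exposure; 96-well plates; endpoints linearly interpolated, else capped at highest concentration. Abbreviation: GI50, concentration required for 50% inhibition of growth.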 The source made the active and inactive calls. Cut-off read from the data, not from the text of the source: active = GI50 up to about 1.1 µM and inactive = higher.

What was measured:
Assay in all cases: DTP human tumour cell line panel, 48 h
A549 = system: A549
UACC-62 = system: UACC-62
LXFL 529 = system: LXFL 529
A498 = system: A498
SW-620 = system: SW-620
OVCAR-5 = system: OVCAR-5
NCI-H460 = system: NCI-H460
HT-29 = system: HT-29
LOX IMVI = system: LOX IMVI
SF-268 = system: SF-268
U-251 = system: U-251
M14 = system: M14
KM12 = system: KM12
ACHN = system: ACHN
SF-539 = system: SF-539
TK-10 = system: TK-10
HCC 2998 = system: HCC 2998
HOP-92 = system: HOP-92

Measured: GI50

O=c1c2ccccc2nc(-c2cccc(Cl)c2)n1NCC1(O)OCC(O)C(O)C1O (centres undefined)
inactive: A549 > 100 µM | UACC-62 > 100 µM | LXFL 529 93.1 µM | A498 > 100 µM | SW-620 > 100 µM | OVCAR-5 > 100 µM | NCI-H460 > 100 µM | HT-29 > 100 µM | LOX IMVI > 100 µM | SF-268 > 100 µM | U-251 > 100 µM | M14 > 100 µM | KM12 > 100 µM | ACHN > 100 µM | SF-539 > 100 µM

CN1C(=O)N(c2nc3ccccc3[nH]2)C(C)(C)C1=O
inactive: A549 > 100 µM | UACC-62 > 100 µM | LXFL 529 > 100 µM | A498 > 100 µM | SW-620 > 100 µM | HT-29 > 100 µM | LOX IMVI > 100 µM | SF-268 > 100 µM | U-251 > 100 µM | M14 > 100 µM | KM12 > 100 µM | ACHN > 100 µM | SF-539 > 100 µM

CCOC(=O)c1[nH]c(COC(C)=O)c(CCCOC(C)=O)c1CCCOC(C)=O
inactive: A549 > 100 µM | TK-10 > 100 µM | LXFL 529 > 100 µM | A498 > 100 µM | HCC 2998 > 100 µM | HOP-92 > 100 µM | SW-620 > 100 µM | OVCAR-5 > 100 µM | NCI-H460 > 100 µM | HT-29 > 100 µM | LOX IMVI > 100 µM | SF-268 > 100 µM | U-251 > 100 µM | KM12 > 100 µM | ACHN > 100 µM | SF-539 > 100 µM

CC1=CC=C2C(C)(C)CC[C@@H]3OC(=O)[C@H]1[C@]23C
inactive: A549 > 100 µM | TK-10 > 100 µM | UACC-62 > 100 µM | LXFL 529 > 100 µM | A498 > 100 µM | HCC 2998 > 100 µM | HOP-92 > 100 µM | SW-620 > 100 µM | OVCAR-5 > 100 µM | HT-29 > 100 µM | LOX IMVI > 100 µM | SF-268 > 100 µM | U-251 > 100 µM | M14 > 100 µM | KM12 > 100 µM | ACHN > 100 µM | SF-539 > 100 µM

O=C1OC(c2ccccc2)=N/C1=C/NC(Cc1ccccc1)C(=O)O (centres undefined)
inactive: A549 > 100 µM | TK-10 > 100 µM | UACC-62 > 100 µM | LXFL 529 > 100 µM | A498 > 100 µM | HCC 2998 > 100 µM | SW-620 > 100 µM | OVCAR-5 > 100 µM | NCI-H460 > 100 µM | HT-29 > 100 µM | LOX IMVI > 100 µM | SF-268 > 100 µM | U-251 > 100 µM | M14 > 100 µM | KM12 > 100 µM | ACHN > 100 µM | SF-539 > 100 µM

N#CC(C#N)=CSc1ccccc1
inactive: A549 19.6 µM | TK-10 38 µM | UACC-62 24.2 µM | LXFL 529 24.3 µM | HOP-92 50.2 µM | SW-620 32.4 µM | OVCAR-5 26.3 µM | NCI-H460 34 µM | HT-29 28.6 µM | LOX IMVI 12.6 µM | SF-268 13.4 µM | U-251 16.5 µM | M14 22.9 µM | KM12 19.7 µM | ACHN 30.5 µM | SF-539 20 µM

COc1ccc(/C=C/c2nnc(S)[nH]2)cc1OC
inactive: A549 > 100 µM | TK-10 > 100 µM | UACC-62 > 100 µM | LXFL 529 > 100 µM | A498 > 100 µM | HCC 2998 > 100 µM | HOP-92 > 100 µM | SW-620 > 100 µM | OVCAR-5 > 100 µM | NCI-H460 > 100 µM | HT-29 > 100 µM | LOX IMVI > 100 µM | SF-268 > 100 µM | U-251 > 100 µM | M14 > 100 µM | ACHN > 100 µM | SF-539 > 100 µM

Clc1ccccc1C1N2CCCCC2[C@@H]2c3[nH]c4ccccc4c3CCN12 (some centres undefined)
inactive: A549 > 10 µM | TK-10 23.8 µM | UACC-62 15 µM | LXFL 529 31 µM | A498 13.9 µM | HCC 2998 18.6 µM | HOP-92 41.7 µM | SW-620 17.3 µM | OVCAR-5 20.9 µM | NCI-H460 19.4 µM | HT-29 17.1 µM | SF-268 17.9 µM | U-251 17.7 µM | M14 17.3 µM | ACHN 16.2 µM | SF-539 15.2 µM

N=C1NC(=O)N2CC12 (centres undefined) [IMEXON]
inactive: A549 > 100 µM | TK-10 > 100 µM | UACC-62 > 100 µM | LXFL 529 > 100 µM | A498 > 100 µM | HCC 2998 > 100 µM | HOP-92 > 100 µM | SW-620 > 100 µM | NCI-H460 > 100 µM | HT-29 > 100 µM | LOX IMVI > 100 µM | SF-268 > 100 µM | U-251 > 100 µM | M14 > 100 µM | KM12 > 100 µM | ACHN > 100 µM | SF-539 > 100 µM
